Measured values from ChEMBL document CHEMBL3862042 (J Med Chem, 2017).

Legend:
Hepatitis C virus [1] = experiment: microbe, parasite or virus in culture; conditions: subtype 2a JFH1, Huh-7, 72 h
Coxsackievirus B3 = experiment: microbe, parasite or virus in culture; conditions: Enterovirus B, Nancy, HeLa, 4 h
[2] = molecular target: T1, Phosphatidylinositol 4-kinase type 2-alpha (Homo sapiens, UniProt Q9BTU6); experiment: Inhibition of PI4K2A (unknown origin) assessed as remaining enzyme activity by ADP-Glo kinase assay relative to untreated control; set-up: concentration or dose not given beside the values
T1 sequence (Q9BTU6 whole entry): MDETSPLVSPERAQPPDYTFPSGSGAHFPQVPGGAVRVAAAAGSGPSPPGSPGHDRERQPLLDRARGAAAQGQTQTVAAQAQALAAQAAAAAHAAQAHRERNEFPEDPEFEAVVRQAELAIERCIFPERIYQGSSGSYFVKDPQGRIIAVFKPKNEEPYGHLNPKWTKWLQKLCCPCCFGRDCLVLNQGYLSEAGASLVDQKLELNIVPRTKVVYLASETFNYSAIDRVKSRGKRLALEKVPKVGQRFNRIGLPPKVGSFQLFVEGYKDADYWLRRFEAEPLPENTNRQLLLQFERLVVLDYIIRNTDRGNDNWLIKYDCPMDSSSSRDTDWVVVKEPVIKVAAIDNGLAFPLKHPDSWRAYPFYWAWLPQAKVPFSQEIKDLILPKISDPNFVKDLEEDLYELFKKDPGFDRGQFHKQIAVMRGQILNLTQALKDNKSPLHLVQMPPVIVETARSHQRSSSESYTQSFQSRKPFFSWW

[3] = Cytotoxicity against human HeLa cells incubated for 3 days by MTT assay; format: toxicity, cell-based
Hepatitis C virus [4] = experiment: microbe, parasite or virus in culture; conditions: genotype 1b, Huh-7, 72 h
Human rhinovirus 1A = experiment: microbe, parasite or virus in culture; conditions: HeLa, 72 h
[5] = molecular target: T2, Phosphatidylinositol 4-kinase beta (Homo sapiens, UniProt Q9UBF8); experiment: Inhibition of PI4KB (unknown origin) at 1 uM by ADP-Glo kinase assay
Target sequence in this assay (Q9UBF8 2-816 limits assumed): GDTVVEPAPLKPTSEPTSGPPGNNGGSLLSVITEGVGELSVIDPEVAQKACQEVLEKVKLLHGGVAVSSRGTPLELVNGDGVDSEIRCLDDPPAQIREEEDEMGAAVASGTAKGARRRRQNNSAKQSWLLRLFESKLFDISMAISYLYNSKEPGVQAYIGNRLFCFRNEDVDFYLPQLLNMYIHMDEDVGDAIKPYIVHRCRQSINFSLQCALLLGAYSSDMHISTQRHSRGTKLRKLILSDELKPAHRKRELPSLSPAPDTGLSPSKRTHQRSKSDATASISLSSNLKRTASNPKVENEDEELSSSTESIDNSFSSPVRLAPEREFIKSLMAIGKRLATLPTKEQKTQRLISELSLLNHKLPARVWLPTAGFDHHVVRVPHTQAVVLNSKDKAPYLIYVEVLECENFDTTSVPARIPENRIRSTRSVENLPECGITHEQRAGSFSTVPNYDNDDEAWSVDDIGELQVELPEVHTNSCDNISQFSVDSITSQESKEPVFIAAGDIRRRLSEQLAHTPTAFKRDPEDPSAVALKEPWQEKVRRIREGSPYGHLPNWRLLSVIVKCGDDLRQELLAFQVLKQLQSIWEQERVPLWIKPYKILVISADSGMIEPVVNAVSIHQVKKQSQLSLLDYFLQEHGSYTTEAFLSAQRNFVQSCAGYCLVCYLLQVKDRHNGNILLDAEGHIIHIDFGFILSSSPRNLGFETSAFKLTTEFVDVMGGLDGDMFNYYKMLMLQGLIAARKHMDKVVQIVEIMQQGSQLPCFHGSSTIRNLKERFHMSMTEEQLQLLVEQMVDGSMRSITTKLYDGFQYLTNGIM

[6] = molecular target: T3, Phosphatidylinositol 4,5-bisphosphate 3-kinase catalytic subunit delta isoform (Homo sapiens, UniProt O00329); experiment: Inhibition of PI3Kdelta (unknown origin) by ADP-Glo kinase assay
T3 sequence (O00329 whole entry): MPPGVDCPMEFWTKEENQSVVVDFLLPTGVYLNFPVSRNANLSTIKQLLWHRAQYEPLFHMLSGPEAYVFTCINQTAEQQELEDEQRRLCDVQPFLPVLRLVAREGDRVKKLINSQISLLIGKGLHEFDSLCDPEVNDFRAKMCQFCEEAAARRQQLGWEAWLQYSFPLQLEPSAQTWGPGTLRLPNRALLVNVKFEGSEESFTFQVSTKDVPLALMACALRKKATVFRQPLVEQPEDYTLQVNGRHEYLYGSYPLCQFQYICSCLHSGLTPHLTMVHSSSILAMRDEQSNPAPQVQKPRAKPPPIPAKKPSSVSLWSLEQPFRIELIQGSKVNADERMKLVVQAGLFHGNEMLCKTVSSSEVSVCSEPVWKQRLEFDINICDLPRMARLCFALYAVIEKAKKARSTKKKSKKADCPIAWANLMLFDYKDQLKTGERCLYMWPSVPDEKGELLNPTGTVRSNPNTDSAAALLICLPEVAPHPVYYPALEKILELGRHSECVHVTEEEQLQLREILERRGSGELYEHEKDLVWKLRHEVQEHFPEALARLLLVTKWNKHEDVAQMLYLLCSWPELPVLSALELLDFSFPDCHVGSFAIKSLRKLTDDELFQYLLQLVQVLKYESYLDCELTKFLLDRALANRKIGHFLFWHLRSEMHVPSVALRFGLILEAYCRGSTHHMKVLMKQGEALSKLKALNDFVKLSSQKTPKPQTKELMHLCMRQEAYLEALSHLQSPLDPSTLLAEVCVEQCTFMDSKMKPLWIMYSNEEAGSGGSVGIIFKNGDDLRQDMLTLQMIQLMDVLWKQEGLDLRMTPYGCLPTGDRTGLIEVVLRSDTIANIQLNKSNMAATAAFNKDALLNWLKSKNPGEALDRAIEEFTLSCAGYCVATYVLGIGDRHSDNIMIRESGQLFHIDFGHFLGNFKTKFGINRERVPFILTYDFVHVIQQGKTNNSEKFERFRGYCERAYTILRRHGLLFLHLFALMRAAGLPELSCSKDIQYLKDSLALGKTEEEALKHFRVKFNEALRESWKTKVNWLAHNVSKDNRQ

[7] = molecular target: Phosphatidylinositol 4,5-bisphosphate 3-kinase catalytic subunit beta isoform (Homo sapiens, UniProt P42338); experiment: Inhibition of PI3Kbeta (unknown origin) by ADP-Glo kinase assay
[8] = molecular target: Phosphatidylinositol 4-kinase alpha (Homo sapiens, UniProt P42356); experiment: Inhibition of PI4KA (unknown origin) by ADP-Glo kinase assay
Sequence of Phosphatidylinositol 4-kinase alpha (P42356 whole entry, canonical isoform): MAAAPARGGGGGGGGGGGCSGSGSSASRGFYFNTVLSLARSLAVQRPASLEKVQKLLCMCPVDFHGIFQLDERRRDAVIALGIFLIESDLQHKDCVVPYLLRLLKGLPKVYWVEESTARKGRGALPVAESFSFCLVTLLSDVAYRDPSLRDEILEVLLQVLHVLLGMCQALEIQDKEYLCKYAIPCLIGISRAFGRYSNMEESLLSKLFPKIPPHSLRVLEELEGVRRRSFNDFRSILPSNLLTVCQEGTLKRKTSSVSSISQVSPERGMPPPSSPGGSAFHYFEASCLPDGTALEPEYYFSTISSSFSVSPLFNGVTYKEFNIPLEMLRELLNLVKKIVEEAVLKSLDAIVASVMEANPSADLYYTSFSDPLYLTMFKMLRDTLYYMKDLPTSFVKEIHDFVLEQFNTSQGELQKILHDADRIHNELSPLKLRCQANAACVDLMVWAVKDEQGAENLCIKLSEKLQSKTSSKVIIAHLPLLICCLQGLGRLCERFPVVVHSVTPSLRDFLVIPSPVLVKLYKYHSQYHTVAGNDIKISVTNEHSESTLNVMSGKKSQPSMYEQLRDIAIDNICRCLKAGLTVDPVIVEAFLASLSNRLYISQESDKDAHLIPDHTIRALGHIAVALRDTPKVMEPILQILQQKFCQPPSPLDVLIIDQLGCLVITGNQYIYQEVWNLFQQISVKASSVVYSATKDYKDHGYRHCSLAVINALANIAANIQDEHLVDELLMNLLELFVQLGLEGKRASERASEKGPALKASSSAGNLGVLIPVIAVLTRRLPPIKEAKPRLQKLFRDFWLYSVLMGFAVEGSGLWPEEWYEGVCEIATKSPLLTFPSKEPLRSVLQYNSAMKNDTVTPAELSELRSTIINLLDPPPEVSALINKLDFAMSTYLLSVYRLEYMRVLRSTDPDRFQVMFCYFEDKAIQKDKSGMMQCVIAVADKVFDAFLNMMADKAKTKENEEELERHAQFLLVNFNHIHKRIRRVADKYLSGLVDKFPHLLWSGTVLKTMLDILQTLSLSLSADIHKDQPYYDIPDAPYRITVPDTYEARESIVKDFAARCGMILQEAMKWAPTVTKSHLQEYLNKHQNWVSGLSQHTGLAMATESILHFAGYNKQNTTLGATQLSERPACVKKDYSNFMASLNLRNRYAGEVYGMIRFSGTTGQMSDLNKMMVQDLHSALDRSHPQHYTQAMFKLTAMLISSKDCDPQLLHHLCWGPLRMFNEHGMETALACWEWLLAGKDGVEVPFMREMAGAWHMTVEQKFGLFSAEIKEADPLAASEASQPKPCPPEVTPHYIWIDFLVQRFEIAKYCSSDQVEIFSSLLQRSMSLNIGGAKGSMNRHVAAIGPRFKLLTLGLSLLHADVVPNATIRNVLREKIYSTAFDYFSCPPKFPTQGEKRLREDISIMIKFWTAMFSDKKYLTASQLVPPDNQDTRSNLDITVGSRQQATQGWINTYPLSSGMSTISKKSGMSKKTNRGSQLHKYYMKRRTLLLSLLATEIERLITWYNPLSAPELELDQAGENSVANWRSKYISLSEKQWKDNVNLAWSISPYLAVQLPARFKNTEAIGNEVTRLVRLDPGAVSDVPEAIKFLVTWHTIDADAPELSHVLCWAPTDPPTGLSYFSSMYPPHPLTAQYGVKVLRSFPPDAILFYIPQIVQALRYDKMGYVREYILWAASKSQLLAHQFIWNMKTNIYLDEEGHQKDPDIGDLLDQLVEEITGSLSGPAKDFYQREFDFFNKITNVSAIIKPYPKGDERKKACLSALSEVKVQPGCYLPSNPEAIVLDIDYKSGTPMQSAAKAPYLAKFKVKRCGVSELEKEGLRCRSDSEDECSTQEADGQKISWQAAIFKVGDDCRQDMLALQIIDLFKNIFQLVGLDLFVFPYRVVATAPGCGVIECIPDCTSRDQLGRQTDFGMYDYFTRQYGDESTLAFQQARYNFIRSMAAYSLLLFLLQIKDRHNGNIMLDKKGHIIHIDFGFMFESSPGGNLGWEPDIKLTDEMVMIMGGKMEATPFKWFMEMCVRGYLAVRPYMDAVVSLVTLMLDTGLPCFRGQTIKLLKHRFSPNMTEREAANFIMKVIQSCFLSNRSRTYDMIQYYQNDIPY

[9] = molecular target: Phosphatidylinositol 4,5-bisphosphate 3-kinase catalytic subunit alpha isoform (Homo sapiens, UniProt P42336); experiment: Inhibition of PI3Kalpha (unknown origin) by ADP-Glo kinase assay
[10] = molecular target: T1, Phosphatidylinositol 4-kinase type 2-alpha; experiment: Inhibition of PI4K2A (unknown origin) by ADP-Glo kinase assay
[11] = molecular target: Phosphatidylinositol 4,5-bisphosphate 3-kinase catalytic subunit gamma isoform (Homo sapiens, UniProt P48736); experiment: Inhibition of PI3Kgamma (unknown origin) by ADP-Glo kinase assay
[12] = molecular target: T2, Phosphatidylinositol 4-kinase beta; experiment: Inhibition of PI4KB (unknown origin) by ADP-Glo kinase assay
Target sequence in this assay (Q9UBF8 whole entry, canonical isoform): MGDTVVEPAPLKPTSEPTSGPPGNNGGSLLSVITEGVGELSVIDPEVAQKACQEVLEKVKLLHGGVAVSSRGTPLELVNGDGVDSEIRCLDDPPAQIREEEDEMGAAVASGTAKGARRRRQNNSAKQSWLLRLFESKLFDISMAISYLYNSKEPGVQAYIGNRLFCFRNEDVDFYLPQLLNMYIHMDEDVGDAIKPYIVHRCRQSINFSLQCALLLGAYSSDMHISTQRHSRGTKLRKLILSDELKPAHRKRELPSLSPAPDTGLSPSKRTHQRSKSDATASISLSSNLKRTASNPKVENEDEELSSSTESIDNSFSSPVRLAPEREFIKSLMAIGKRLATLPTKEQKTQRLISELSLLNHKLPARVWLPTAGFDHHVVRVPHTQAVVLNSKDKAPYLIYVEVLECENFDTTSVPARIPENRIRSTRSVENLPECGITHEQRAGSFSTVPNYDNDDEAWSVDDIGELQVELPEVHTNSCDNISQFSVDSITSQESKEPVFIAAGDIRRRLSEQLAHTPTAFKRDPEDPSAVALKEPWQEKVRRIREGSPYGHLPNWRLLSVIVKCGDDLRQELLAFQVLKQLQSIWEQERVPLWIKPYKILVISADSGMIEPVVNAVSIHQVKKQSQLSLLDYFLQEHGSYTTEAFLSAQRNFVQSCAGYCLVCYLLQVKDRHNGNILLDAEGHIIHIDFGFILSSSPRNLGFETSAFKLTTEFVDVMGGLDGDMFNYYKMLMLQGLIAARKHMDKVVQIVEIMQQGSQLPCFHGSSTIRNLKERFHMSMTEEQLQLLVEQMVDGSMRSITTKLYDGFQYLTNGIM

EC50 (Hepatitis C virus [1])	EC50 (Coxsackievirus B3)	Activity [2]	EC50 (Hepatitis C virus [4])	EC50 (Human rhinovirus 1A)	Compound	CC50 at 72 h [3]	further results
> 44.4 µM	0.138 µM	112%	0.954 µM	< 0.01 µM	CCc1cc(CNc2cc(Cl)nn3c(-c4ccc(OC)c(S(=O)(=O)n5cccn5)c4)c(C)nc23)ccn1	61.9 µM	–
–	–	105%	–	–	COc1ccc(-c2c(C)nc3c(NCCNC(C)=O)cc(Cl)nn23)cc1S(=O)(=O)NCCN(C)C	–	–
26 µM	0.083 µM	97%	1.02 µM	< 0.01 µM	CCc1cc(CNc2cc(Cl)nn3c(-c4ccc(OC)c(S(=O)(=O)N5CCOCC5)c4)c(C)nc23)ccn1	25.7 µM	–
–	–	106%	–	–	CCc1cc(CNc2cc(Cl)nn3c(-c4ccc(OC)c(S(=O)(=O)N(C)C)c4)c(C)nc23)ccn1	–	–
–	–	107%	–	–	COCCNS(=O)(=O)c1cc(-c2c(C)nc3c(NCCNC(C)=O)cc(Cl)nn23)ccc1OC	–	–
> 44.4 µM	1.66 µM	77%	3.42 µM	6.76 µM	CCC(CO)NS(=O)(=O)c1cc(-c2c(C)nc3c(NCCNC(C)=O)cc(Cl)nn23)ccc1OC (configuration not stated)	> 50 µM	–
20.4 µM	0.017 µM	109%	0.02 µM	< 0.01 µM	CCc1cc(CNc2cc(Cl)nn3c(-c4ccc(OC)c(S(=O)(=O)N5CCC(O)CC5)c4)c(C)nc23)ccn1	8.4 µM	–
26.5 µM	0.056 µM	101%	9.2 µM	0.069 µM	CCc1cc(CNc2cc(Cl)nn3c(-c4ccc(OC)c(S(=O)(=O)NC5CCC(N)CC5)c4)c(C)nc23)ccn1 (configuration not stated)	5.76 µM	–
> 44.4 µM	5 µM	85%	1.83 µM	5.42 µM	COc1ccc(-c2c(C)nc3c(NCCNC(C)=O)cc(Cl)nn23)cc1S(=O)(=O)N1CCC(CO)CC1	131 µM	–
8.51 µM	0.151 µM	100%	0.35 µM	< 0.01 µM	CCc1cc(CNc2cc(Cl)nn3c(-c4ccc(OC)c(S(=O)(=O)NCCN(C)C)c4)c(C)nc23)ccn1	5.56 µM	–
14.4 µM	0.058 µM	106%	0.029 µM	0.075 µM	CCc1cc(CNc2cc(Cl)nn3c(-c4ccc(OC)c(S(=O)(=O)NCCO)c4)c(C)nc23)ccn1	18.3 µM	inhibition [5]: 50%; IC50 [6]: < 10 µM; IC50 [7]: < 10 µM; IC50 [8]: 13.4 µM; IC50 [9]: < 10 µM; IC50 [10]: > 10 µM; IC50 [11]: < 10 µM
–	–	88%	–	–	COc1ccc(-c2c(C)nc3c(NCCNC(C)=O)cc(Cl)nn23)cc1S(=O)(=O)N1CCC(O)CC1	–	–
20.1 µM	0.012 µM	105%	0.667 µM	< 0.01 µM	C=CCNS(=O)(=O)c1cc(-c2c(C)nc3c(NCc4ccnc(CC)c4)cc(Cl)nn23)ccc1OC	6.85 µM	–
> 44.4 µM	1.32 µM	104%	0.594 µM	0.716 µM	COc1ccc(-c2c(C)nc3c(NCCNC(C)=O)cc(Cl)nn23)cc1S(=O)(=O)N(C)C	84.2 µM	–
35.9 µM	5.31 µM	93%	2.68 µM	0.99 µM	C=CCNS(=O)(=O)c1cc(-c2c(C)nc3c(NCCNC(C)=O)cc(Cl)nn23)ccc1OC	445 µM	–
–	–	–	–	–	CC(=O)NCCNc1cc(Cl)nn2c(-c3cccc(S(=O)(=O)N(C)C)c3)c(C)nc12	–	IC50 [8]: > 100 µM; IC50 [12]: 0.054 µM
9.44 µM	0.476 µM	104%	< 0.02 µM	< 0.01 µM	CCc1cc(CNc2cc(Cl)nn3c(-c4ccc(OC)c(S(=O)(=O)NC(CC)CO)c4)c(C)nc23)ccn1 (configuration not stated)	17.9 µM	–
–	–	102%	–	–	COc1ccc(-c2c(C)nc3c(NCCNC(C)=O)cc(Cl)nn23)cc1S(=O)(=O)NC1CCC(N)CC1 (configuration not stated)	–	–
–	–	114%	–	–	CCc1cc(CNc2cc(Cl)nn3c(-c4ccc(OC)c(S(=O)(=O)NC5CC5)c4)c(C)nc23)ccn1	–	–
–	–	108%	–	–	COc1ccc(-c2c(C)nc3c(NCCNC(C)=O)cc(Cl)nn23)cc1S(=O)(=O)NC1CC1	–	–
–	–	73%	–	–	CNCCNS(=O)(=O)c1cc(-c2c(C)nc3c(NCCNC(C)=O)cc(Cl)nn23)ccc1OC	–	–
> 44.4 µM	0.038 µM	88%	1.03 µM	0.655 µM	COc1ccc(-c2c(C)nc3c(NCCNC(C)=O)cc(Cl)nn23)cc1S(=O)(=O)N1CCOCC1	89.2 µM	–
–	–	112%	–	–	COc1ccc(-c2c(C)nc3c(NCCNC(C)=O)cc(Cl)nn23)cc1S(=O)(=O)NCCO	–	–
8.69 µM	1.1 µM	–	0.393 µM	0.062 µM	CCc1cc(CNc2cc(Cl)nn3c(-c4cccc(S(=O)(=O)N(C)C)c4)c(C)nc23)ccn1	15.4 µM	–
–	–	99%	–	–	CCc1cc(CNc2cc(Cl)nn3c(-c4ccc(OC)c(S(=O)(=O)N5CCCCC5)c4)c(C)nc23)ccn1	–	–
–	–	115%	–	–	CCc1cc(CNc2cc(Cl)nn3c(-c4ccc(OC)c(S(=O)(=O)N5CCC(CO)CC5)c4)c(C)nc23)ccn1	–	–
27.9 µM	< 0.02 µM	104%	0.416 µM	< 0.01 µM	CCc1cc(CNc2cc(Cl)nn3c(-c4ccc(OC)c(S(=O)(=O)NCCOC)c4)c(C)nc23)ccn1	9.14 µM	–
–	–	83%	–	–	COc1ccc(-c2c(C)nc3c(NCCNC(C)=O)cc(Cl)nn23)cc1S(=O)(=O)n1cccn1	–	–
–	–	101%	–	–	CCc1cc(CNc2cc(Cl)nn3c(-c4ccc(OC)cc4)c(C)nc23)ccn1	–	–
–	–	60%	–	–	COc1ccc(-c2c(C)nc3c(NCCNC(C)=O)cc(Cl)nn23)cc1S(=O)(=O)N1CCCCC1	–	–
